From US20050267204A1, “Synergistic gold-containing compositions” (MEDICAL INNOVATIONS LIMITED, priority 1996, published 2005)
Entries after “also recorded” stand apart in the source; their conditions may differ. Read-outs that look alike come from different tables or passages of the source.

Columns and labels:
[1] = tested on: TPA-induced epidermal hyperplasia; assay: Inhibition of TPA-induced epidermal hyperplasia (epidermal thickness) on back skin of mice; format: in vivo, BALB/c mice; settings: for Synergistic factor: IC50 without auranofin divided by IC50 with auranofin (0.2%); for Emax: read-out: Emax (% inhibition); for Synergism with auranofin, epidermal hyperplasia (in words): auranofin (0.2%) co-administered; for Relative potency: hydrocortisone acetate = 1.0; for Percent increase in the apparent potency of the steroid: in presence of auranofin (0.2%)
Description: (§1) The mice were housed in stainless steel cages, 6 mice per cage under normal laboratory conditions (room temperature at about 22° C.) at least 7 days before the experiments for acclimatization. Food and water were allowed ad libitum throughout the experiment period. The backs of the mice were shaved with an electric clipper two days before each treatment and only those mice showing no hair regrowth were used (i.e., the mice in the resting phase of the hair growth cycle were selected). During treatment, the mice were held with their tails and put on top of the cage so that they grasped the cage and rested there. The solutions were applied to an area approximately 2 cm×2 cm on the shaved back of the mice by using a “Pipetman” to apply the solution. If auranofin ointment or ointment base was applied, the amount was standardized by using a microspatula which was crimped at one end, the ointment was then put into the ridge and the excess removed by means of another microspatula and applied sparingly twice a day. After a fixed time, the mice were killed routinely by cervical dislocation between 9 a.m. and 11 a.m. to avoid variations due to circadian rhythms, and an area (1 cm×1 cm) was excised from the centre of the treated area by scalpel and scissors. The rest of the tissues were disposed by combustion. The tissues were then fixed, embedded, sectioned and stained.
Epidermal thickness was determined by image analysis. This image analysis system was a minicomputer (Tracor Northern TN8500) attached to a light microscope (Zeiss Axioplan) and a camcorder (Sony DXC-3000P). Sections were taken from each tissue block and 20 measurements were taken at fixed intervals from each section. The average value for the 20 measurements was obtained and entered as one value for each mouse. The mean and SEM for the six mice in each treatment group were calculated.
(§2) The percent inhibition of drug on TPA-induced skin responses (i.e., epidermal hyperplasia, inflammatory cell infiltration and skin-fold thickness) was calculated by using the following formula: [formula]
(§3) This provides estimates of (a) the potency, (b) the efficacy or maximum effect (Emax) and the slope of the log concentration-response curve by using Hill coefficient (γ). The Hill Equation may be expressed as follows: [formula] where IC50 is the drug concentration producing 50% of the maximal response and Emax refers to the maximal effect produced by the drug and is also termed efficacy. Efficacy is the measurement of the intrinsic ability of a drug to initiate a response once it occupies receptor sites. […] The Hill coefficient (γ) measures the slope of the dose-effect curve which can be markedly influenced by the shape of the curve that describes the binding of the drug to the receptor. For many drugs, y lies between 0.6 and 1.5. […] On the other hand, when γ is less than 1, with a shallow hyperbolic concentration effect relationship, the activity occurs over a wide range of drug levels.
(§4) In the present study, concentration-response curves were obtained for a series of corticosteroids. In these experiments, curve fitting was accomplished using a computer programme called “The Scientist” (MicroMath Scientific Software, Salt Lake City, Utah, USA.) in which the parameters, Emax, IC50 and Hill coefficient (γ) for each steroids were estimated by using non-linear regression and least square fits.
Mice were divided into treatment groups. TPA and corticosteroids were premixed to the concentrations required and applied to the backs of mice immediately. For those steroids not very soluble in acetone (i.e., betamethasone, dexamethasone, hydrocortisone and hydrocortisone acetate), the drugs were dissolved in 100 μL dimethylformamide before further dilution with acetone. The efficacy of corticosteroids in inhibiting epidermal hyperplasia, inflammatory cell infiltration and skin-fold thickness was assessed as described previously. Concentration-response curves were determined after computer-fitting of data.

[2] = tested on: TPA-induced inflammatory cell infiltration into the dermis; assay: Inhibition of TPA-induced inflammatory cell infiltration into the dermis of mice; format: in vivo, BALB/c mice; settings: for Synergistic factor: IC50 without auranofin divided by IC50 with auranofin (0.2%); for IC50 / Emax: Mus musculus; for Emax: read-out: Emax (% inhibition); for Relative potency: hydrocortisone acetate = 1.0
Description: as §1
Infiltration of inflammatory cells was determined by the same image analysis system using the section taken from the block of mouse skin embedded in paraffin wax or Spurr's resin and stained with haematoxylin and eosin or toluidine blue respectively. For each section, 10 fields, unless otherwise stated, were chosen randomly and the cell density per mm^2 of field determined. The average value for the 10 fields was obtained and entered as one value for each mouse. The mean and SEM for the six mice in each treatment group were calculated.
The measurement of the inflammatory cell infiltration included the background values which included other materials in the dermis stained in the same way.
as §2, §3, §4
Mice were divided into treatment groups. TPA and corticosteroids were premixed to the concentrations required and applied to the backs of mice immediately.

[3] = Mus musculus, from Hill equation, concentration that produced 50% of Emax, read-out: IC50 for inhibition of epidermal thickening (M × 10^−4)
[4] = Mus musculus, read from concentration-response curve, concentration that inhibited 50% of the TPA effect, read-out: IC50 for inhibition of epidermal thickening (M × 10^−4)
[5] = Mus musculus, topical, Hill equation fit, means ± SD, steroid premixed with TPA, topical, read-out: IC50 (M × 10^−4)
[6] = Mus musculus, with auranofin (0.2%), from computer fitted graph, means ± SD, read-out: Apparent IC50 (M × 10^−4) with auranofin
[7] = Mus musculus, without auranofin, from computer fitted graph, means ± SD, read-out: Apparent IC50 (M × 10^−4) without auranofin
[8] = Mus musculus, Hill equation fit, means ± SD, steroid premixed with TPA, topical
[9] = from Hill equation, concentration that produced 50% of Emax, read-out: IC50 for inhibition of inflammatory cell infiltration in the dermis (M × 10^−4)
[10] = read from concentration-response curve, concentration that inhibited 50% of the TPA effect, read-out: IC50 for inhibition of inflammatory cell infiltration in the dermis (M × 10^−4)
[11] = topical, Hill equation fit, means ± SD, steroid premixed with TPA, topical, read-out: IC50 (M × 10^−4)
[12] = with auranofin (0.2%), from computer fitted graph, means ± SD, read-out: Apparent IC50 (M × 10^−4) with auranofin
[13] = without auranofin, from computer fitted graph, means ± SD, read-out: Apparent IC50 (M × 10^−4) without auranofin
[14] = Hill equation fit, means ± SD, steroid premixed with TPA, topical

C[C@]12CCC(=O)C=C1CC[C@@H]1[C@@H]2[C@@H](O)C[C@@]2(C)[C@H]1CC[C@]2(O)C(=O)CO [Hydrocortisone, hydrocortisone]
Synergistic factor [1]: 2.05
IC50 [1, 3]: 4620 µM
IC50 [1, 4]: 4510 µM
IC50 [1, 5]: 4620 ± 1320 µM
IC50 [1, 6]: 2200 ± 1120 µM
IC50 [1, 7]: 4500 ± 1320 µM
Emax [1, 8]: 99 ± 9.54%
Synergism with auranofin, epidermal hyperplasia (in words) [1]: minor degree of synergism
Relative potency ([1]; from Hill-equation IC50): 0.79
Relative potency ([1]; from IC50 read from curve): 1.55
Percent increase in the apparent potency of the steroid [1]: 100%
Potency for inhibition of TPA-induced epidermal hyperplasia (in words) ([1]; ranking in text): low to medium potencies
Synergistic factor [2]: 1.94
IC50 [2, 9]: 6150 µM
IC50 [2, 10]: 6000 µM
IC50 [2, 11]: 6150 ± 966 µM
IC50 [2, 12]: 3100 ± 412 µM
IC50 [2, 13]: 6000 ± 966 µM
Emax [2, 14]: 100%
Relative potency ([2]; from Hill-equation IC50): 1.26
Relative potency ([2]; from IC50 read from curve): 1.83
Potency for inhibition of TPA-induced inflammatory cell infiltration (in words) ([2]; ranking in text): low to medium potencies

CCC(=O)OCC(=O)[C@@]1(OC(=O)CC)[C@@H](C)C[C@H]2[C@@H]3CCC4=CC(=O)C=C[C@]4(C)[C@@]3(F)[C@@H](O)C[C@@]21C [Betamethasone dipropionate, betamethasone dipropionate]
Potency for inhibition of TPA-induced epidermal hyperplasia (in words) [1]: medium to strong potencies; also recorded: strong to very strong potencies
Inhibition of TPA effect (epidermal hyperplasia) ([1]; 1×10^−5 M combined with auranofin (0.2%), FIG. 1): about 65%
Synergistic factor [1]: 56.0
IC50 [1, 3]: 81 µM
IC50 [1, 4]: 140 µM
IC50 [1, 5]: 81 ± 36 µM
IC50 [1, 6]: 2.5 ± 0.3 µM
IC50 [1, 7]: 140 ± 36 µM
inhibition at 10 µM ([1]; Mus musculus, 1×10^−5 M alone, FIG. 1, read-out: Inhibition of TPA effect (epidermal hyperplasia)): ~20%
Emax [1, 8]: 95.6 ± 6.55%
Ratio of concentration without auranofin to concentration with auranofin for the same effect ([1]; about 65% inhibition level): 50 times
Synergism with auranofin, epidermal hyperplasia (in words) [1]: massive synergism
Relative potency ([1]; from Hill-equation IC50): 45.27
Relative potency ([1]; from IC50 read from curve): 50.0
Percent increase in the apparent potency of the steroid [1]: 5,600%
Concentration that, in the absence of auranofin, produced the same effect as the combination ([1]; same effect as 1×10^−5 M with auranofin (0.2%)): 500 µM
Potency for inhibition of TPA-induced inflammatory cell infiltration (in words) [2]: medium to strong potencies; also recorded: strong to very strong anti-inflammatory effect
Synergistic factor [2]: 4.44
IC50 [2, 9]: 29 µM
IC50 [2, 10]: 40 µM
IC50 [2, 11]: 29 ± 6 µM
IC50 [2, 12]: 9 ± 1.6 µM
IC50 [2, 13]: 40 ± 6 µM
Emax [2, 14]: 90.8 ± 3.71%
Relative potency ([2]; from Hill-equation IC50): 266.66
Relative potency ([2]; from IC50 read from curve): 275.0
Increase in apparent IC50 ([2]; in presence of auranofin (0.2%), Table 10): 400-500%

CC1(C)O[C@@H]2C[C@H]3[C@@H]4CCC5=CC(=O)C=C[C@]5(C)[C@@]4(F)[C@@H](O)C[C@]3(C)[C@]2(C(=O)CO)O1 [Triamcinolone acetonide]
IC50 [1, 3]: 113 µM
IC50 [1, 4]: 140 µM
IC50 [1, 5]: 113 ± 35 µM
Emax [1, 8]: 89.8 ± 6.4%
Relative potency ([1]; from Hill-equation IC50): 32.45
Relative potency ([1]; from IC50 read from curve): 50.0
IC50 [2, 9]: 39 µM
IC50 [2, 10]: 70 µM
IC50 [2, 11]: 39 ± 3 µM
Emax [2, 14]: 77.2 ± 1.26%
Relative potency ([2]; from Hill-equation IC50): 198.28
Relative potency ([2]; from IC50 read from curve): 157.14

CC(=O)OCC(=O)[C@@]1(O)CC[C@H]2[C@@H]3CCC4=CC(=O)CC[C@]4(C)[C@H]3[C@@H](O)C[C@@]21C [Hydrocortisone acetate, hydrocortisone acetate]
IC50 [1, 3]: 3670 µM
IC50 [1, 4]: 7000 µM
IC50 [1, 5]: 3670 ± 1200 µM
Emax [1, 8]: 79.6 ± 7.62%
Relative potency ([1]; from Hill-equation IC50): 1.0
Relative potency ([1]; from IC50 read from curve): 1.0
Potency for inhibition of TPA-induced epidermal hyperplasia (in words) ([1]; ranking in text): low to medium potencies
IC50 [2, 9]: 7730 µM
IC50 [2, 10]: 11000 µM
IC50 [2, 11]: 7730 ± 1380 µM
Emax [2, 14]: 79.4%
Relative potency ([2]; from Hill-equation IC50): 1.0
Relative potency ([2]; from IC50 read from curve): 1.0
Potency for inhibition of TPA-induced inflammatory cell infiltration (in words) ([2]; ranking in text): low to medium potencies

CC1(C)O[C@@H]2C[C@H]3[C@@H]4C[C@H](F)C5=CC(=O)C=C[C@]5(C)[C@@]4(F)[C@@H](O)C[C@]3(C)[C@]2(C(=O)CO)O1 [Fluocinolone acetonide, fluocinolone acetonide]
Synergistic factor [1]: 13.13
IC50 [1, 3]: 39 µM
IC50 [1, 4]: 21 µM
IC50 [1, 5]: 39 ± 14 µM
IC50 [1, 6]: 1.6 ± 0.2 µM
IC50 [1, 7]: 21 ± 14 µM
Emax [1, 8]: 89.6 ± 6.93%
Synergism with auranofin, epidermal hyperplasia (in words) [1]: massive synergism
Relative potency ([1]; from Hill-equation IC50): 94.03
Relative potency ([1]; from IC50 read from curve): 333.33
Percent increase in the apparent potency of the steroid [1]: 1,300%
Potency for inhibition of TPA-induced epidermal hyperplasia (in words) ([1]; ranking in text): strong to very strong potencies
Synergistic factor [2]: 2.27
IC50 [2, 9]: 16 µM
IC50 [2, 10]: 25 µM
IC50 [2, 11]: 16 ± 2 µM
IC50 [2, 12]: 11 ± 1.3 µM
IC50 [2, 13]: 25 ± 0.2 µM
Emax [2, 14]: 79.6 ± 2.41%
Relative potency ([2]; from IC50 read from curve): 440
Potency for inhibition of TPA-induced inflammatory cell infiltration (in words) ([2]; ranking in text): most potent agent
Potency for inhibition of TPA-induced inflammatory cell infiltration (in words) ([2]; ranking in text, listed as fluocinolone acetonide): strong to very strong anti-inflammatory effect

CC[PH](CC)(CC)[Au][S][C@@H]1O[C@H](COC(C)=O)[C@@H](OC(C)=O)[C@H](OC(C)=O)[C@H]1OC(C)=O [Auranofin, (1-thio-p-D-glucopyranose 2,3,4,6-tetraacetato-S)-(triethylphosphine)-Au(I)]
Inhibition of TPA-induced epidermal hyperplasia ([1]; auranofin (0.2%) alone, FIG. 1): about 10%
